Results: US12319752B2, “Heparin-binding cationic peptide self-assembling peptide amphiphiles useful against drug-resistant bacteria” (priority 2016, dated 2025)
Residues, ends and D or L forms follow the SMILES beside them. *: point of attachment. Palmitoyl = CCCCCCCCCCCCCCCC(=O)*

Columns and labels:
[1] = test system: MDR E. coli; assay: Live/dead bacterial viability assay; type: cell-based, multidrug-resistant E. coli (MDR E. coli); conditions: 4 h
From the text: To further investigate bacteria viability after treatment with ACA-PA, the live/dead assay was used to confirm the antibacterial actions of ACA-PA. Dead bacteria with disrupted membrane were stained a first color, whereas live bacteria were stained with a second color fluorescence. A large amount of robust MRSA bacteria in the untreated control sample appeared a second color and in spherical shapes (FIG. 10A). […] This antibacterial activity was dependent on the concentration of PA, yet was not determined by peptide self-assembly. Nonetheless, Gram-negative MDR E. coli responded to the treatment of ACA-PA differently from Gram-positive MRSA.
The live/dead bacterial viability assay was conducted to further assess the bactericidal efficacy of ACA-PA using the LIVE/DEAD BacLight Bacterial Viability Kits (Kits 71007, Molecular Probes, Eugene, OR, USA). MRSA and MDR E. coli bacteria (100 μl, 10^6 CFU/mL) were incubated with 80 μM and 40 μM of peptide in 3% TSB media at 37° C. for 4 h on a 96-well plate, and the control samples of bacteria were incubated in 3% TSB media only. […] The live bacteria stained fluorescent a second color (SYTO9 nucleic acid stain), whereas the dead bacteria with disrupted membranes stained fluorescent a first color (propidium iodide, PI).

[2] = test system: MRSA; assay: Bacterial membrane disruption by TEM of ultrathin sections; type: cell-based, methicillin-resistant S. aureus (MRSA); conditions: 4 h
Method: TEM was used to reveal the damage in bacterial cell envelopes caused by ACA-PA treatment. Drug-resistant bacterial strains (MRSA and MDR E. coli) were exposed to ACA-PA at concentrations below (40 μM) and above (80 μM) the CMC, and ultrathin sections of the bacterial cultures were visualized by TEM.
The ACA-PA at a concentration lower than CMC seemed to only influenced the outer bacteria membrane, but were inadequate to disrupt the inner bacteria membranes.
Bacterial membrane disruption was observed from the ultrathin sectioned sample using TEM. […] After treatment with 80 μM ACA nanorods, bacterial cell membranes were severely damaged with complete cytoplasm leakage. […] On the damaged membranes, blisters appeared to originate from the pores. This explains the reason for the different antibacterial activity of ACA-PA on Gram-negative bacteria compared to the concentration-dependent toxicity on Gram-positive bacteria. The cell envelope of Gram-positive has a cytoplasmic membrane surrounded by a thick peptidoglycan layer with lipoteichoic acid. The antibacterial ACA-PA could penetrate the Gram-positive bacterial membrane by charge and hydrophobicity, although the PA were in a dispersed, non-assembled form. However, such dispersed PA were not able to penetrate the outer membrane of Gram-negative bacteria. […]

[3] = Critical micelle concentration (CMC) by Nile Red fluorescence; type: physicochemical; conditions: in water, Nile Red dye
From the text: First, the solvatochromic probe Nile Red was used to examine the threshold concentrations for the spontaneous aggregation induced by hydrophobic collapse of peptides. Once the supramolecular structures of PA self-assemble in water at their CMC, the Nile Red dye can be solubilized in the hydrophobic cores of the PA assemblies, displaying an enhanced fluorescent intensity. Consequently, the fluorescent intensity maxima of Nile Red were at the emission wavelength of 630 nm in the solutions of CVK-PA and ACA-PA, whereas the emission wavelength was located at 660 nm in the Bi-Cardin peptide solutions (FIG. 4A-4D). […] To estimate the CMC of each peptide, the corrected fluorescent intensity (If,corrected) of Nile Red at its emission wavelength for each peptide solution was calculated using equation: If,corrected=If,sample−If,water, where If,sample is the average of the triplicate fluorescent intensity measurements in the sample and If,water is the fluorescent intensity of Nile Red in water without the peptide. The measurements of the corrected fluorescent intensity were plotted against the log 10 values of concentration of each peptide, then the CMC value was determined at the point of intersection of the plot of log peptide concentration and fluorescent intensity of Nile Red.

Which “bacterial viability (live/dead staining)” value ([1]; 40 μM) does the source give for `CCCCCCCCCCCCCCCC(=O)N[C@H](C(=O)N[C@H](C(=O)N[C@H](C(=O)N[C@H](C(=O)N[C@@H](CCCCN)C(=O)N[C@@H](CCCCN)C(=O)N[C@@H](CCCCN)C(=O)N[C@@H](CCCCN)C(=O)NCC(=O)N[C@@H](C)C(=O)N[C@@H](CCCCN)C(=O)N[C@@H](CCCCN)C(=O)N[C@@H](C)C(=O)N[C@@H](CCCNC(=N)N)C(=O)N[C@@H](C)C(=O)N[C@@H](C)C(=O)N[C@@H](CCCCN)C(=O)N[C@@H](CCCCN)C(=O)N[C@@H](C)C(=O)N[C@@H](CCCNC(=N)N)C(=O)N[C@@H](C)C(=O)O)C(C)C)C(C)C)C(C)C)C(C)C` [ACA-PA, C16-V4K4G(AKKARA)2 (SEQ ID NO: 7)] (Palmitoyl-VVVVKKKKGAKKARAAKKARA-OH; N-terminus and C-terminus assumed) here?
The value was “unable to induce considerable cell mortality”.

And the “bacterial viability (live/dead staining)” value ([1]; 80 μM)?
The value was “enhanced the number of dead bacteria drastically”.

What about the “bacterial membrane disruption (TEM)” value ([2]; 40 μM) of the same compound?
Its value is “partially damaged”.

And the “bacterial membrane disruption (TEM)” value ([2]; 80 μM)?
The value was “localized disruption on the cell membrane and complete leakage of the cytoplasm”.

And the CMC [3]?
Its CMC is 45.7 µM.
